Data as given in patent US20230150929A1, “SELECTIVE NON-CYCLIC NUCLEOTIDE ACTIVATORS FOR THE CAMP SENSOR EPAC1” (The Board of Regents of The University of Texas System, priority 2020, published 2023).

Target: T1, EPAC1-CNBD (Homo sapiens, UniProt O95398)
T1 sequence (O95398 169-318 isoform O95398-3): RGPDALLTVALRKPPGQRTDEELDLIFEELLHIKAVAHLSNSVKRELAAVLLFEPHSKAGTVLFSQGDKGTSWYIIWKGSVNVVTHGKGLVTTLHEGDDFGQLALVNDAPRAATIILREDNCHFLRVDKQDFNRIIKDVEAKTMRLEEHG
Test: 8-NBD-cAMP competition binding assay, EPAC1-CNBD
Conditions: for EPAC1 binding potency / affinity in words: SAR comment on RFI, mostly relative to 3 or 9a; for RFI (%) (relative fluorescence intensity), Table 1 / RFI (%) (relative fluorescence intensity), Table 2 / RFI (%) (relative fluorescence intensity), Table 3 / RFI (%) (relative fluorescence intensity), Table 4: compound 10 µM, EPAC1-CNBD 0.8 µM, 8-NBD-cAMP 62.5 nM, mean ± SEM, lower RFI = stronger binding

Question: What does the source list for `Cc1cc(C)c(S(=O)(=O)NC(=O)COc2cccc3ccccc23)c(C)c1` [Compound 9b, N-(Mesitylsulfonyl)-2-(naphthalen-1-yloxy)acetamide]?
Answer: EPAC1 binding potency / affinity in words: no significant improvement; RFI (%) (relative fluorescence intensity), Table 1: 94 ± 5%

Question: What does the source list for `Cc1cc(C)c(S(=O)(=O)NC(=O)COc2ccc3cccnc3c2)c(C)c1` [Compound 9c, N-(Mesitylsulfonyl)-2-(quinolin-7-yloxy)acetamide]?
Answer: EPAC1 binding potency / affinity in words: no significant improvement; RFI (%) (relative fluorescence intensity), Table 1: 92 ± 2%

Question: How did the “EPAC1 binding potency / affinity in words” value turn out when `CC(=O)c1c(OCC(=O)NS(=O)(=O)c2c(C)cc(C)cc2C)ccc2ccccc12` [Compound 9d, 2-((1-Acetylnaphthalen-2-yl)oxy)-N-(mesitylsulfonyl)acetamide] was run?
Answer: no significant improvement

Question: And the “RFI (%) (relative fluorescence intensity), Table 1” value?
Answer: 104 ± 7%

Question: With `COc1ccc2ccc(OCC(=O)NS(=O)(=O)c3c(C)cc(C)cc3C)cc2c1` [Compound 9e, N-(Mesitylsulfonyl)-2-((7-methoxynaphthalen-2-yl)oxy)acetamide] as the compound, how does the “RFI (%) (relative fluorescence intensity), Table 1” value read?
Answer: 49 ± 3%

Question: And the “fold improvement in binding potency compared to 9a” value (from RFI at 10 µM)?
Answer: about 1.7 fold

Question: Which “EPAC1 binding potency / affinity in words” value does the source give for `Cc1cc(C)c(S(=O)(=O)NC(=O)COc2ccc3c(c2)CCCC3)c(C)c1` [Compound 9f, N-(Mesitylsulfonyl)-2-((5,6,7,8-tetrahydronaphthalen-2-yl)oxy)acetamide] here?
Answer: slightly decreased binding potency

Question: What about the “RFI (%) (relative fluorescence intensity), Table 1” value of the same compound?
Answer: 77 ± 2%

Question: With `Cc1cc(C)c(S(=O)(=O)NC(=O)CNc2cccc(Cl)c2)c(C)c1` [Compound 9h, 2-((3-Chlorophenyl)amino)-N-(mesitylsulfonyl)acetamide] as the compound, how does the “RFI (%) (relative fluorescence intensity), Table 1” value read?
Answer: 88 ± 9%

Question: Which “RFI (%) (relative fluorescence intensity), Table 1” value does the source give for `Cc1cc(C)c(S(=O)(=O)NC(=O)CSc2nc3ccccc3c(=O)[nH]2)c(C)c1` [Compound 9i, N-(Mesitylsulfonyl)-2-((4-oxo-3,4-dihydroquinazolin-2-yl)thio)acetamide] here?
Answer: 95 ± 4%

Question: For `Cc1cc(C)c(S(=O)(=O)NC(=O)CN2CCc3ccccc3C2)c(C)c1` [Compound 9j, 2-(3,4-Dihydroisoquinolin-2(1H)-yl)-N-(mesitylsulfonyl)acetamide], which “RFI (%) (relative fluorescence intensity), Table 1” value is on record?
Answer: 102 ± 1%

Question: For `COc1cc2c(cc1OC)CN(CC(=O)NS(=O)(=O)c1c(C)cc(C)cc1C)CC2` [Compound 9k, 2-(6,7-Dimethoxy-3,4-dihydroisoquinolin-2(1H)-yl)-N-(mesitylsulfonyl)acetamide], which “RFI (%) (relative fluorescence intensity), Table 1” value is on record?
Answer: 102 ± 5%

Question: How did the “RFI (%) (relative fluorescence intensity), Table 1” value turn out when `Cc1cc(C)c(S(=O)(=O)NC(=O)CN2CCn3c(nnc3C(F)(F)F)C2)c(C)c1` [Compound 9l, N-(Mesitylsulfonyl)-2-(3-(trifluoromethyl)-5,6-dihydro-[1,2,4]triazolo[4,3-a]pyrazin-7(8H)-yl)acetamide] was run?
Answer: 104 ± 2%

Question: With `Cc1cc(C)c(S(=O)(=O)NC(=O)CN2CCN(c3ccccn3)CC2)c(C)c1` [Compound 9m, N-(Mesitylsulfonyl)-2-(4-(pyridin-2-yl)piperazin-1-yl)acetamide] as the compound, how does the “RFI (%) (relative fluorescence intensity), Table 1” value read?
Answer: 119 ± 8%

Question: For `Cc1ccc(S(=O)(=O)NC(=O)COc2ccc3cc(Cl)ccc3c2)c(C)c1` [Compound 9n, 2-((6-Chloronaphthalen-2-yl)oxy)-N-((2,4-dimethylphenyl)sulfonyl)acetamide], which “RFI (%) (relative fluorescence intensity), Table 2” value is on record?
Answer: 50 ± 2%

Question: `Cc1ccc(S(=O)(=O)NC(=O)COc2ccc3cc(F)ccc3c2)c(C)c1` [Compound 9o, 2-((6-Fluoronaphthalen-2-yl)oxy)-N-((2,4-dimethylphenyl)sulfonyl)acetamide] was tested. Which “RFI (%) (relative fluorescence intensity), Table 2” value did it give?
Answer: 55 ± 1%

Question: `Cc1ccc(S(=O)(=O)NC(=O)COc2ccc3ccc(Cl)cc3c2)c(C)c1` [Compound 9p, 2-((7-Chloronaphthalen-2-yl)oxy)-N-((2,4-dimethylphenyl)sulfonyl)acetamide] was tested. Which “RFI (%) (relative fluorescence intensity), Table 2” value did it give?
Answer: 66 ± 2%

Question: How did the “RFI (%) (relative fluorescence intensity), Table 2” value turn out when `Cc1ccc(S(=O)(=O)NC(=O)COc2cccc3ccccc23)c(C)c1` [Compound 9q, N-((2,4-dimethylphenyl)sulfonyl)-2-(naphthalen-1-yloxy)acetamide] was run?
Answer: 71 ± 1%

Question: `Cc1ccc(S(=O)(=O)NC(=O)COc2ccc3[nH]ccc3c2)c(C)c1` [Compound 9r, 2-((1H-Indol-5-yl)oxy)-N-((2,4-dimethylphenyl)sulfonyl)acetamide] was tested. Which “RFI (%) (relative fluorescence intensity), Table 2” value did it give?
Answer: 91 ± 2%

Question: For `Cc1ccc(S(=O)(=O)NC(=O)COc2ccc3[nH]ncc3c2)c(C)c1` [Compound 9s, 2-((1H-Indazol-5-yl)oxy)-N-((2,4-dimethylphenyl)sulfonyl)acetamide], which “RFI (%) (relative fluorescence intensity), Table 2” value is on record?
Answer: 94 ± 4%

Question: What does the source list for `Cc1cc(C)c(S(=O)(=O)NC(=O)CSc2ccc3ccccc3c2)c(C)c1` [Compound 12a, N-(Mesitylsulfonyl)-2-(naphthalen-2-ylthio)acetamide]?
Answer: EPAC1 binding potency / affinity in words: completely inhibit EPAC binding potency; RFI (%) (relative fluorescence intensity), Table 3: 92 ± 2%

Question: Which “RFI (%) (relative fluorescence intensity), Table 3” value does the source give for `Cc1cc(C)c(S(=O)(=O)NC(=O)CNc2ccc3ccccc3c2)c(C)c1` [Compound 12b, N-(Mesitylsulfonyl)-2-(naphthalen-2-ylamino)acetamide] here?
Answer: 97 ± 5%

Question: Which “EPAC1 binding potency / affinity in words” value does the source give for `Cc1cc(C)c(S(=O)(=O)NCCOc2ccc3ccccc3c2)c(C)c1` [Compound 12c, 2,4,6-Trimethyl-N-(2-(naphthalen-2-yloxy)ethyl)benzenesulfonamide] here?
Answer: partial or complete loss of binding activity

Question: What about the “RFI (%) (relative fluorescence intensity), Table 3” value of the same compound?
Answer: 105 ± 4%

Question: How did the “EPAC1 binding potency / affinity in words” value turn out when `Cc1cc(C)c(S(=O)(=O)N2CCC(Oc3ccc4ccccc4c3)CC2)c(C)c1` [Compound 12d, 1-(Mesitylsulfonyl)-4-(naphthalen-2-yloxy)piperidine] was run?
Answer: partial or complete loss of binding activity

Question: And the “RFI (%) (relative fluorescence intensity), Table 3” value?
Answer: 105 ± 3%

Question: How did the “RFI (%) (relative fluorescence intensity), Table 3” value turn out when `Cc1cc(C)c(S(=O)(=O)NC(=O)C(F)Oc2ccc3ccccc3c2)c(C)c1` (stereo not drawn) [Compound 12e, 2-Fluoro-N-(mesitylsulfonyl)-2-(naphthalen-2-yloxy)acetamide] was run?
Answer: 82 ± 4%

Question: For `Cc1ccc(S(=O)(=O)NC(=O)C(C)(C)Oc2ccc3ccccc3c2)c(C)c1` [Compound 12f, N ((2,4-Dimethylphenyl)sulfonyl)-2-methyl-2-(naphthalen-2-yloxy)propenamide], which “EPAC1 binding potency / affinity in words” value is on record?
Answer: partial or complete loss of binding activity

Question: What about the “RFI (%) (relative fluorescence intensity), Table 3” value of the same compound?
Answer: 76 ± 3%

Question: With `Cc1ccc(S(=O)(=O)NCCOc2ccc3ccccc3c2)c(C)c1` [Compound 12g, 2,4-Dimethyl-N-(2-(naphthalen-2-yloxy)ethyl)benzenesulfonamide] as the compound, how does the “EPAC1 binding potency / affinity in words” value read?
Answer: partial or complete loss of binding activity

Question: And the “RFI (%) (relative fluorescence intensity), Table 3” value?
Answer: 81 ± 3%

Question: `Cc1cc(C)cc(S(=O)(=O)NC(=O)COc2ccc3ccccc3c2)c1` [Compound 25a, N-((3,5-Dimethylphenyl)sulfonyl)-2-(naphthalen-2-yloxy)acetamide] was tested. Which “RFI (%) (relative fluorescence intensity), Table 4” value did it give?
Answer: 38 ± 2%

Question: And the “fold binding potency increase versus compound 3” value (from RFI at 10 µM)?
Answer: about 1.6 fold

Question: How did the “EPAC1 binding potency / affinity in words” value turn out when `O=C(COc1ccc2ccccc2c1)NS(=O)(=O)C1CCCCC1` [Compound 25aa, N-(Cyclohexylsulfonyl)-2-(naphthalen-2-yloxy)acetamide] was run?
Answer: complete loss of affinity

Question: And the “RFI (%) (relative fluorescence intensity), Table 4” value?
Answer: 81±3%

Question: `O=C(COc1ccc2ccccc2c1)NS(=O)(=O)c1cccc(-c2ccoc2)c1` [Compound 25ab, N-3-(Furan-3-yl)phenylsulfonyl-2-(naphthalene-2-yloxy)acetamide] was tested. Which “RFI (%) (relative fluorescence intensity), Table 4” value did it give?
Answer: 53 ± 2%

Question: Which “RFI (%) (relative fluorescence intensity), Table 4” value does the source give for `O=C(COc1ccc2ccccc2c1)NS(=O)(=O)c1cccc(-c2ccccc2)c1` [Compound 25ac, N-([1,1′-Biphenyl]-3-ylsulfonyl)-2-(naphthalene-2yloxy)acetamide] here?
Answer: 35± 1%

Question: `COC(=O)c1cccc(S(=O)(=O)NC(=O)COc2ccc3ccccc3c2)c1` [Compound 25ad, Methyl 3-(N-(2-(naphthalene-2-yloxy)acetyl)sulfamoyl)benzoate] was tested. Which “RFI (%) (relative fluorescence intensity), Table 4” value did it give?
Answer: 71 ± 1%

Question: `O=C(COc1ccc2ccccc2c1)NS(=O)(=O)c1ccccc1F` [Compound 25b, N-((2-Fluorophenyl)sulfonyl)-2-(naphthalen-2-yloxy)acetamide] was tested. Which “EPAC1 binding potency / affinity in words” value did it give?
Answer: decreased the binding potency

Question: What about the “RFI (%) (relative fluorescence intensity), Table 4” value of the same compound?
Answer: 69 ± 2%

Question: For `O=C(COc1ccc2ccccc2c1)NS(=O)(=O)c1cccc(F)c1` [Compound 25c, N-((3-Fluorophenyl)sulfonyl)-2-(naphthalen-2-yloxy)acetamide], which “EPAC1 binding potency / affinity in words” value is on record?
Answer: decreased the binding potency

Question: And the “RFI (%) (relative fluorescence intensity), Table 4” value?
Answer: 82 ± 4%

Question: `O=C(COc1ccc2ccccc2c1)NS(=O)(=O)c1ccc(F)cc1` [Compound 25d, N-((4-Fluorophenyl)sulfonyl)-2-(naphthalen-2-yloxy)acetamide] was tested. Which “EPAC1 binding potency / affinity in words” value did it give?
Answer: decreased the binding potency

Question: And the “RFI (%) (relative fluorescence intensity), Table 4” value?
Answer: 81 ± 4%

Question: Which “RFI (%) (relative fluorescence intensity), Table 4” value does the source give for `COc1ccc(OC)c(S(=O)(=O)NC(=O)COc2ccc3ccccc3c2)c1` [Compound 25h, N-((2,5-Dimethoxyphenyl)sulfonyl)-2-(naphthalen-2-yloxy)acetamide] here?
Answer: 72 ± 4%
